Each structure is given as a SMILES string.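 These data come from cells grown in 96-well plates and exposed to compound for 48 hours at five concentrations. At the GI50, growth is halved.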 Calls of active or inactive are those of the source. No stated cut-off is given here; in the data, active = GI50 up to about 1.1 µM and inactive = higher.

For orientation: GI50 means the concentration giving 50% growth inhibition.

What all share (experiment): DTP human tumour cell line panel, 48 h
Assay [1] concerns OVCAR-3.
For assay [2], the system named is OVCAR-8.
The subject of assay [3] is SW-620.
Assay [4] deals with NCI/ADR-RES.
Assay [5] deals with CAKI-1.
The subject of assay [6] is U-251.
Assay [7] relates to ACHN.
Assay [8] concerns SK-MEL-2.
The subject of assay [9] is OVCAR-5.
Assay [10] concerns NCI-H460.
Assay [11] deals with NCI-H23.
The test system of assay [12] is MOLT-4.
In assay [13] the test system is SNB-75.
In assay [14] the test system is MCF7.
The subject of assay [15] is 786-0.
Assay [16] concerns IGROV-1.
The test system of assay [17] is NCI-H522.
The test system of assay [18] is UACC-257.
Assay [19] concerns HCT-116.
In assay [20] the test system is Malme-3M.

Regarding `CC1=NN(C(=O)CSc2nc3ccc(I)cc3c(=O)n2Cc2ccccc2)C(=O)C1`, the GI50 in [1] is 27.9 µM (inactive); in assay [2], 48.8 µM (inactive); in assay [3] it was 46.5 µM (inactive); in assay [4], 20.9 µM (inactive); in assay [5], 31.8 µM (inactive); in assay [6], 25.4 µM (inactive). The GI50 was 28.8 µM (inactive) in assay [7]; 17.2 µM (inactive) in [8]; 65.2 µM (inactive) in assay [9]; 31.8 µM (inactive) in assay [10]; 16.1 µM (inactive) in assay [11]; 24.4 µM (inactive) in assay [12]. In addition, the GI50 in assay [13] was 35.3 µM (inactive); in [14], 22.8 µM (inactive); in [15], 36.9 µM (inactive); in [16], 28.8 µM (inactive); in assay [17], 7.05 µM (inactive); in [18], 34 µM (inactive). The GI50 in assay [19] is 29.9 µM (inactive).
As for `O=C(COC(=O)c1ccccc1)c1ccc(Br)cc1`, the GI50 in assay [1] was 12.9 µM (inactive); in assay [2], 12.5 µM (inactive); in assay [3], 6 µM (inactive); in assay [4] it was 21 µM (inactive); in assay [5], 1.47 µM (inactive); in [6], 11 µM (inactive). Besides, the GI50 in assay [7] was 19.9 µM (inactive); in assay [8], 12.2 µM (inactive); in assay [9] it was 10.7 µM (inactive); in assay [10], 18.5 µM (inactive); in [20], 12.2 µM (inactive); in [11], 18.3 µM (inactive). The GI50 in assay [12] was 3.29 µM (inactive); in [13] it was 16.4 µM (inactive); in assay [14], 5.53 µM (inactive); in assay [15] it was 2.41 µM (inactive); in assay [16], 1 µM (active); in assay [17], 1.63 µM (inactive). Besides, the GI50 in assay [18] was 15.5 µM (inactive); in assay [19] it was 8.95 µM (inactive).
Regarding `O=c1oc2ccc([N+](=O)[O-])cc2c(Nc2ccc3c(c2)Oc2ccccc2O3)c1[N+](=O)[O-]`, the GI50 in [1] was 47.3 µM (inactive); in assay [2], 26.8 µM (inactive); in [4], 29.9 µM (inactive); in assay [5] it was 28.8 µM (inactive); in assay [6], 18.9 µM (inactive); in [7], 32.2 µM (inactive). Moreover, the GI50 was 21.3 µM (inactive) in [8]; 38 µM (inactive) in assay [9]; 30 µM (inactive) in assay [10]; 69.8 µM (inactive) in assay [20]; 25.1 µM (inactive) in assay [11]; 40.9 µM (inactive) in assay [13]. Besides, the GI50 is 26.5 µM (inactive) in assay [14]; 23.4 µM (inactive) in [15]; 28.6 µM (inactive) in assay [16]; 35.5 µM (inactive) in assay [17]; 26.2 µM (inactive) in assay [18]; 29 µM (inactive) in assay [19].
In the case of `c1cc2cc3c4c5c(cc6ccc7cc8cc9c%10c8c8c7c6c5c8c5c%10c(c1C9N1CCOCCOCCOCCOCCOCC1)c2c45)C3` (stereo not given), the GI50 in assay [1], in assay [2], in [3], in assay [4], in assay [6] and in [7] was > 100 µM (inactive) in each case. In addition, the GI50 in [8], in assay [9], in assay [10], in [20], in assay [11] and in [12] was > 100 µM (inactive) in each case. The GI50 in assay [13], in assay [14], in assay [15], in assay [16], in assay [17] and in assay [18] was > 100 µM (inactive) in each case. For the same molecule, the GI50 in assay [19] was > 100 µM (inactive).
`COc1cccc(-c2cc(O)c3cc(N4CCN(C)CC4)ccc3n2)c1`: the GI50 in assay [2] is 2.01 µM (inactive); in [3], 0.522 µM (active); in assay [4] it was 1.47 µM (inactive); in [5], 2.66 µM (inactive); in [6], 0.785 µM (active); in assay [7], 5.25 µM (inactive). Moreover, the GI50 was 1.19 µM (inactive) in assay [8]; 5.14 µM (inactive) in [9]; 2.99 µM (inactive) in [10]; 0.641 µM (active) in [20]; 2.54 µM (inactive) in [11]; 2.91 µM (inactive) in assay [12]. Besides, the GI50 in assay [13] was 5.3 µM (inactive); in [14], 2.67 µM (inactive); in [15] it was 2.96 µM (inactive); in [16] it was 3.2 µM (inactive); in assay [17], 1.57 µM (inactive); in assay [18] it was 0.706 µM (active). Also, in [19], the 50% growth inhibitory concentration (GI50) is 0.543 µM (active).
In the case of `CCOP(=O)(/C=C/n1cnc2c(=O)n(C(C)=O)c(N)nc21)OCC`, the GI50 in assay [1], in assay [2], in [3], in assay [4], in assay [5] and in assay [6] was > 100 µM (inactive) throughout. The GI50 in [7], in assay [8], in [9], in assay [10], in assay [11] and in [12] was > 100 µM (inactive) throughout. Moreover, the GI50 in assay [13] is > 100 µM (inactive); in assay [14] it was > 100 µM (inactive); in assay [15], > 100 µM (inactive); in [16], > 100 µM (inactive); in assay [17], 67.9 µM (inactive); in assay [18], > 100 µM (inactive). The GI50 in [19] is > 100 µM (inactive).
Turning to `CN(C)CCNC1=Nc2ccccc2C(=O)N2CSCC12` (stereo not given), the GI50 in assay [1], in [2], in [3], in assay [4], in assay [5] and in [6] was > 100 µM (inactive) in each case. The GI50 in [7], in [8], in [9], in [10], in assay [20] and in assay [12] was > 100 µM (inactive) throughout. In addition, the GI50 in assay [13], in assay [14], in assay [15], in [16], in assay [17] and in [18] was > 100 µM (inactive) each time. Moreover, the GI50 in assay [19] was > 100 µM (inactive).
With `CN(C)c1ccc(/C=C/C(=O)CC(=O)/C=C/c2ccc(N(C)C)cc2)cc1`, the GI50 in assay [1] is 65.3 µM (inactive); in assay [2], > 100 µM (inactive); in assay [3] it was > 100 µM (inactive); in assay [4] it was > 100 µM (inactive); in assay [5] it was > 100 µM (inactive); in [6], > 100 µM (inactive). The GI50 in [7], in assay [8], in assay [9], in assay [10], in [20] and in assay [12] was > 100 µM (inactive) each time. The GI50 is > 100 µM (inactive) in [13]; > 100 µM (inactive) in assay [14]; > 100 µM (inactive) in assay [15]; > 100 µM (inactive) in assay [16]; > 100 µM (inactive) in assay [17]; 57.3 µM (inactive) in [19].
With `NCCCN(CCCN(C(=O)Nc1ccccc1)c1ccccc1)C(=O)Nc1ccccc1`, the GI50 in assay [2] was 49.3 µM (inactive); in [3], 21.3 µM (inactive); in assay [4], 69.5 µM (inactive); in assay [6] it was 36.6 µM (inactive); in assay [7], 55.7 µM (inactive); in assay [8], 21.9 µM (inactive). Besides, the GI50 is 43.2 µM (inactive) in [9]; 31 µM (inactive) in assay [10]; 20 µM (inactive) in assay [20]; 27.2 µM (inactive) in assay [11]; 52 µM (inactive) in assay [12]; 23.2 µM (inactive) in [13]. Further, the GI50 is 35.1 µM (inactive) in assay [14]; 33 µM (inactive) in assay [15]; 51.1 µM (inactive) in assay [16]; 20.2 µM (inactive) in assay [17]; 22 µM (inactive) in assay [18]; 18.6 µM (inactive) in [19].
With `CCCCCC(C(O)C#N)C(O)(C(F)(F)F)C(F)(F)F` (stereo not given), the GI50 in assay [1], in [2], in assay [3], in assay [4], in assay [5] and in assay [6] was > 10 µM (inactive) throughout. The GI50 in assay [7], in assay [9], in assay [20], in assay [11], in assay [12] and in assay [13] was > 10 µM (inactive) throughout. Further, the GI50 in assay [14], in [15], in [16], in assay [17], in assay [18] and in assay [19] was > 10 µM (inactive) each time.
For the molecule `COc1ccc(S(=O)(=O)c2nnc(S(=O)(=O)Cc3ccccc3)s2)cc1`, the GI50 in assay [1] is 32.2 µM (inactive); in assay [2], 21.9 µM (inactive); in [3] it was 15 µM (inactive); in [4], 43.7 µM (inactive); in assay [5], 17.5 µM (inactive); in [6] it was 19.5 µM (inactive). Besides, the GI50 in assay [7] is 12.7 µM (inactive); in assay [8] it was 18.3 µM (inactive); in assay [9] it was 25.8 µM (inactive); in assay [10], 17.4 µM (inactive); in assay [11] it was 27.3 µM (inactive); in assay [12], 2.58 µM (inactive). Besides, the GI50 is 16.4 µM (inactive) in assay [13]; 19.2 µM (inactive) in assay [14]; 18.8 µM (inactive) in assay [15]; 8.18 µM (inactive) in assay [17]; 14.7 µM (inactive) in assay [18]; 20.4 µM (inactive) in assay [19].

The values above are taken from ChEMBL document CHEMBL1201862, “PubChem BioAssay data set” (2004).
